Consider eleven molecules from patent US20200264191A1, “METHODS AND KITS FOR DIAGNOSIS OF FAMILIAL MEDITERRANEAN FEVER” (INSERM (Institut National de la Santé et de la Recherche …, priority 2017, published 2020).

The target of one assay is PKCγ (Homo sapiens, UniProt P05129). The conditions noted are these: cell-free assays where stated; cited from earlier work.
The target of a further assay is PKCα (Homo sapiens, UniProt P17252). The conditions noted are these: cell-free assays where stated; cited from earlier work.
A further assay concerns the target PKCδ (Homo sapiens, UniProt Q05655). The conditions noted are these: cell-free assays where stated; cited from earlier work.
A further assay addresses PKCβ (Homo sapiens, UniProt P05771). The following applies: cell-free assays where stated; cited from earlier work.
For a further assay, the target named is T1, PKCζ (Homo sapiens, UniProt Q05513).
T1 sequence (Q05513 1-592): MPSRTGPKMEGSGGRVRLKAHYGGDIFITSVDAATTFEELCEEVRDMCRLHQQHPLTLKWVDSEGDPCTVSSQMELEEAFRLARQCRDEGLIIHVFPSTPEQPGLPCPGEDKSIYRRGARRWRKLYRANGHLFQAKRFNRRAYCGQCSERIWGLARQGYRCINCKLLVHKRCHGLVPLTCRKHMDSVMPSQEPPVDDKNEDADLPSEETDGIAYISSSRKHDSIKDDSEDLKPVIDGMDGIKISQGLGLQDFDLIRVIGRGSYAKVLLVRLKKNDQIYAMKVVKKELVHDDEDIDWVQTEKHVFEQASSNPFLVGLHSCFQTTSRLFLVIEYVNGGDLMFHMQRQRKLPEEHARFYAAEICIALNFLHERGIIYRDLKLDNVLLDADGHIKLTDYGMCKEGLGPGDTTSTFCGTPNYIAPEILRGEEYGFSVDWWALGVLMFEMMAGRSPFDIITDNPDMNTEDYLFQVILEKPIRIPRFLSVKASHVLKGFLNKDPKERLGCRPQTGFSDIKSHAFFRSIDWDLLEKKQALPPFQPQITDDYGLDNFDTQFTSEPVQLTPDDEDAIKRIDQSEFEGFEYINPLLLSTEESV
The following applies: cited from earlier work.

For a further assay, the target named is T2, PKCμ (Homo sapiens, UniProt Q15139).
T2 sequence (Q15139 1-912): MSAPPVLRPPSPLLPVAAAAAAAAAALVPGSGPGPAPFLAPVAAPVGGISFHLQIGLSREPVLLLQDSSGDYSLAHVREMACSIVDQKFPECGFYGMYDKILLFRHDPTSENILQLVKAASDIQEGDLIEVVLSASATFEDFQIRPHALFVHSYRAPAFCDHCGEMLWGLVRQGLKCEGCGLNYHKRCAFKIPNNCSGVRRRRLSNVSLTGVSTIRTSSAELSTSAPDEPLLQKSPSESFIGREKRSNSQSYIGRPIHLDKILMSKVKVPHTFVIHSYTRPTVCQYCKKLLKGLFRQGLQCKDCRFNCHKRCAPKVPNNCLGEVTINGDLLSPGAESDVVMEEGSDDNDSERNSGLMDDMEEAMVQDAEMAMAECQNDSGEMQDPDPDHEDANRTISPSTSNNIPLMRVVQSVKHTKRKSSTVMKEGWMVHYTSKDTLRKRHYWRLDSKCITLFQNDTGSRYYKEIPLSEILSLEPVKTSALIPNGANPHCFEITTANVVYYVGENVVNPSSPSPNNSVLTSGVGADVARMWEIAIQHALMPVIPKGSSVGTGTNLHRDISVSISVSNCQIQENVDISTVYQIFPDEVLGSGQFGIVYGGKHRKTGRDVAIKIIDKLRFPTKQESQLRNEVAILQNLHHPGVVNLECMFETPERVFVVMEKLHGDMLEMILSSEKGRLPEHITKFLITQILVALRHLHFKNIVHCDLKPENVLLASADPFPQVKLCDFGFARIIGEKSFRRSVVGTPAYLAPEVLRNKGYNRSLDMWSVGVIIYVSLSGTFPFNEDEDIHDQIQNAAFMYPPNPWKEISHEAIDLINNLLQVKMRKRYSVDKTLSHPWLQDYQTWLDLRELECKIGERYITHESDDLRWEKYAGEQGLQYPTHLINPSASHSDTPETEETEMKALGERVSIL
The conditions noted are these: cited from earlier work.

Another assay has as its target PKCβII (Homo sapiens, UniProt P05771). The conditions noted are these: cell-free assays where stated; read-out: IC50 for PKCβII (PKCβ2); cited from earlier work.
The next assay concerns the target PKN2 (Homo sapiens, UniProt Q16513). The following applies: cited from earlier work.
For the next assay, the target named is PKCβI (Homo sapiens, UniProt P05771). The conditions noted are these: cell-free assays where stated; read-out: IC50 for PKCβI (PKCβ1); cited from earlier work.
Sequence of PKCβI (P05771 whole entry): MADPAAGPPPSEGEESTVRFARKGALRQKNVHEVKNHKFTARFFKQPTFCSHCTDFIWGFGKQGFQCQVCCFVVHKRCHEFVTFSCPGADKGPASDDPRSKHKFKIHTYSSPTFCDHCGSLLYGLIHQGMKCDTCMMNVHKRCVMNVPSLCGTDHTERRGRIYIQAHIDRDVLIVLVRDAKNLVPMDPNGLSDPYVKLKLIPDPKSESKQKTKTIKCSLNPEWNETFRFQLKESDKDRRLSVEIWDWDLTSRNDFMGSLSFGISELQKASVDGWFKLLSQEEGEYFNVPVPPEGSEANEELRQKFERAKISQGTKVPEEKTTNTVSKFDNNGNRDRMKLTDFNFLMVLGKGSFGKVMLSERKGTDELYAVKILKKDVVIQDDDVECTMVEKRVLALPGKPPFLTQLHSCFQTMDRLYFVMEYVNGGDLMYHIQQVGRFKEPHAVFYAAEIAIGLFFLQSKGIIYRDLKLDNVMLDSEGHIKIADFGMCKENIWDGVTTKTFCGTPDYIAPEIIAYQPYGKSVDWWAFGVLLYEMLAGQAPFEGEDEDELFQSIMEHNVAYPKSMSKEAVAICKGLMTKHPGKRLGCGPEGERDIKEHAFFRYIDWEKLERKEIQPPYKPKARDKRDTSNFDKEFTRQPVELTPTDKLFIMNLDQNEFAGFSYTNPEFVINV
Another assay deals with T3, PKCε (Homo sapiens, UniProt Q02156).
T3 sequence (Q02156 1-737): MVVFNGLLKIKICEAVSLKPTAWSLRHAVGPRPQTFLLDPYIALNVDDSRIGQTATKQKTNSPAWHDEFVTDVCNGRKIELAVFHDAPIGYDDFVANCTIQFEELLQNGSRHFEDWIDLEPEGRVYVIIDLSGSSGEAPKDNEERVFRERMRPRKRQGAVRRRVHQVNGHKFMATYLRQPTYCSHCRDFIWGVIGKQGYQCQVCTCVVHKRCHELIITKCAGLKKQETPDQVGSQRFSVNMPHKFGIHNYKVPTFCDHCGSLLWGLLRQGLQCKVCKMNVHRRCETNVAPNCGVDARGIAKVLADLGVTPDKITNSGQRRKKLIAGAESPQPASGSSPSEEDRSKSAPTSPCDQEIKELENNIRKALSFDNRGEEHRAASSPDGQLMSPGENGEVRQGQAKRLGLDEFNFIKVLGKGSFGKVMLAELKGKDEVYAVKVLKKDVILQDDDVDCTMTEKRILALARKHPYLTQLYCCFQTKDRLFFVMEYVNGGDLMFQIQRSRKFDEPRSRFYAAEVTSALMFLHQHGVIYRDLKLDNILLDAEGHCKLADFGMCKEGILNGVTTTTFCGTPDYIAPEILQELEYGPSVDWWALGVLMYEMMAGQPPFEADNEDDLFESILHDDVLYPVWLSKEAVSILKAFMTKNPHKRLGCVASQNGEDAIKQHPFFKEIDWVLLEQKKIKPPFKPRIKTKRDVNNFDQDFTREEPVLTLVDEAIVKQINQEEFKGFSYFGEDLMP
The following applies: cell-free assays where stated; cited from earlier work.

The subject of assay [1] is Primary monocytes from HD or FMF patients. As to the kind of experiment: IL-1β release by primary monocytes (ELISA of supernatant). The conditions noted are these: LPS-primed; Ro 31-8220 100 μM or ATP 2.5 mM, 1.5 h. (In an ELISA, binding on a coated surface is turned into a signal by an enzyme label.)
Description: Blood was drawn in heparin-coated tubes and kept at room temperature overnight. The next day, peripheral blood mononuclear cells (PBMCs) were isolated by density-gradient centrifugation using Lymphocyte Separation Medium (Eurobio) [23]. Monocytes were isolated from PBMCs by magnetic selection using CD14 MicroBeads (Miltenyi Biotec) [24] and the AutoMACS Pro Separator (Miltenyi Biotec) following manufacturer's instructions. Monocytes were enumerated in the presence of a viability marker (propidium iodide, 10 μg/ml) by flow cytometry (BD Accuri C6 Flow Cytometer®) [25].
When indicated, monocytes were incubated for 3 hours in the presence of LPS (10 ng/ml, Invivogen). […] Following the incubation, cells were centrifuged and supernatants were collected.
Levels of IL-1β in monocyte supernatants were quantified by ELISA (R&D Systems). […] Three technical replicates per conditions were done.
Assay [2] shares this test system. Briefly: Monocyte cell death by propidium iodide incorporation. It counts as cell-based, human. The conditions noted are these: for difference in AUC of cell death kinetics between FMF and HD monocytes (in words): UCN-01 12.5 μM unprimed, or LPS then nigericin 5 μM. As for the experimental part:
Propidium iodide incorporation was monitored every 5 minutes from 5 minutes to 105 minutes post-UCN-01/nigericin stimulation using a fluorimeter. Cell death was calculated using TX-100-treated cells (100% cell death) and normalized cell death kinetics are presented (A, D). Each symbol corresponds to the average values of the normalized cell death of monocytes from 17 HD and […]. Mean and standard deviations are shown at each time point. […] (C-G) The time post-treatment needed to reach 20% monocytes cell death was calculated from each HD (n=17) and FMF patients (n=13) cell death kinetics. […] The bar represents the mean.
Cell death was determined by measuring propidium iodide incorporation/fluorescence at 1 h30 post stauroporin addition. […] The bar represents the mean. Cell death was normalized using TX-100-treated cells (100% cell death). With a cell death threshold set at 10% (horizontal line), this assay discriminates healthy donors from FMF patients.
Three technical replicates per conditions were done.

For another assay, the system named is PKC (Rat brain). The following applies: cited from earlier work.
The target in another assay is PKCθ (Homo sapiens, UniProt Q04759). The following applies: cell-free assay; cited from earlier work.
Sequence of PKCθ (Q04759 whole entry): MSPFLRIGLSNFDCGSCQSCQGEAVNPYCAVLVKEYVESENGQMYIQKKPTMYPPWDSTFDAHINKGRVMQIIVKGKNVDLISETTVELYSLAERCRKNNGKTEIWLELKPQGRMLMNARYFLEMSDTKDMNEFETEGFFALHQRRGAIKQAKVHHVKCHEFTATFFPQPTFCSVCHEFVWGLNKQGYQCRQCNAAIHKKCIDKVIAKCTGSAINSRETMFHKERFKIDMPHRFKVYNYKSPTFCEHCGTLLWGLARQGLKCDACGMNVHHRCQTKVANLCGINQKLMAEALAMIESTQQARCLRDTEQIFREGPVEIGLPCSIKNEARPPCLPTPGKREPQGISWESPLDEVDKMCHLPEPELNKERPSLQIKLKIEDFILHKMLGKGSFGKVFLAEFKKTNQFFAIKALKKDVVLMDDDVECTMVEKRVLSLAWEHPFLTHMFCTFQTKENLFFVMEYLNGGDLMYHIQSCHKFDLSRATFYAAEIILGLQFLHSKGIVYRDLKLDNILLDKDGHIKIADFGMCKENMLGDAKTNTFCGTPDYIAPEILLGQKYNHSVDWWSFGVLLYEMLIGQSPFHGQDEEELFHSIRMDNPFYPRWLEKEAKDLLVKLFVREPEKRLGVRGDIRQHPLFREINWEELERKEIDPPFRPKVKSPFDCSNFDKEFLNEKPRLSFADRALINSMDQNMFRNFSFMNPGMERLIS
The next assay concerns PKC. The following applies: cited from earlier work.
For assay [3], the system named is apamin-sensitive K+ channels. The following applies: cited from earlier work.
The next assay relates to PKA. The conditions noted are these: cited from earlier work.
Another assay has as its system PI3K. The following applies: cited from earlier work.
Where [4] appears, read: LPS 10 ng/ml 3 h, then nigericin 5 μM.

Sequence of PKCβII (P05771 1-673 isoform P05771-2): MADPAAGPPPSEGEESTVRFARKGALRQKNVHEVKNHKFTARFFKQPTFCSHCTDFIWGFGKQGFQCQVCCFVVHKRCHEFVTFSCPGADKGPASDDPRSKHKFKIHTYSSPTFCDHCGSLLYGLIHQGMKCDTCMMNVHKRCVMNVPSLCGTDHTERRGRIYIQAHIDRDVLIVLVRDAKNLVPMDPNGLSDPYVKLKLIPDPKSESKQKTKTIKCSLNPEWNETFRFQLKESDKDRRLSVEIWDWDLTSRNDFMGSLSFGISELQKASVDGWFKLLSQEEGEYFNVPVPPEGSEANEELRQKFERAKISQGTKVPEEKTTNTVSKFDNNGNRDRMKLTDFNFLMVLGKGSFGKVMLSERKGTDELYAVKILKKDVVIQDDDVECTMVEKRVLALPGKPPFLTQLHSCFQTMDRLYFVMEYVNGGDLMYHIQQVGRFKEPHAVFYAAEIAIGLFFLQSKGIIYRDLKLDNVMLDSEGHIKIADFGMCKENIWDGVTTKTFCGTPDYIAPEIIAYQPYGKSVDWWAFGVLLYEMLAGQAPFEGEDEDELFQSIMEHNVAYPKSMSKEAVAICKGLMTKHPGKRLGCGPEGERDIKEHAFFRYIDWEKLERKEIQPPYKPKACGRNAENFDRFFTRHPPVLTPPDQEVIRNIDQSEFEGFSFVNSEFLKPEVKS
Sequence of PKCβ (P05771 whole entry, species assumed): as the sequence (P05771 whole entry) above
Sequence of PKCδ (Q05655 whole entry): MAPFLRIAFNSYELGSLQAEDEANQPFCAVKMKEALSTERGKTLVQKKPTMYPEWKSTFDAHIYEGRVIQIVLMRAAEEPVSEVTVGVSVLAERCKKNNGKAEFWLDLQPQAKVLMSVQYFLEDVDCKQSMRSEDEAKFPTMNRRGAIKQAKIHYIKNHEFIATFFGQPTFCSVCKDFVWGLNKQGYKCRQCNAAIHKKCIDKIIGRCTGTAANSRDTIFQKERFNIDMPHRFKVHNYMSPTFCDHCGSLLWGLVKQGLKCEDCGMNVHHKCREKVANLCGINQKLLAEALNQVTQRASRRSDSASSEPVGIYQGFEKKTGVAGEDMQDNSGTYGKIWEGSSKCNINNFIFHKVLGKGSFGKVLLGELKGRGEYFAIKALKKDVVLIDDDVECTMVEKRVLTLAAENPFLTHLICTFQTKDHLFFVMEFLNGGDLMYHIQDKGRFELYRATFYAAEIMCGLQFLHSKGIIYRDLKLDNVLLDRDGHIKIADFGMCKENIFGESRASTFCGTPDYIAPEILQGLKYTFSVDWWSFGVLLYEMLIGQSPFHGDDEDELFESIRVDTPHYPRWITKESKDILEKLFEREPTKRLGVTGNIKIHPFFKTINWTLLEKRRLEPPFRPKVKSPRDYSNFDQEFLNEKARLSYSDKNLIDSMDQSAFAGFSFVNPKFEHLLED

Broadly, the IC50 is the concentration that inhibits the measured activity by half. For `COc1ccc2c(c1)c(C1=C(c3c[nH]c4ccccc34)C(=O)NC1=O)cn2CCCN(C)C` [Go 6983], the IC50 is 6 nM on PKCγ, 7 nM at PKCα, 10 nM on PKCδ and 7 nM at PKCβ. Besides, the “activity on PKCζ (in words)” value on PKCζ is given as “less potent”. In addition, on PKCμ, the “activity on PKCμ (in words)” value is “inactive”.
As for `CS(=O)(=O)O.Cn1cc(C2=C(c3cn(CCCSC(=N)N)c4ccccc34)C(=O)NC2=O)c2ccccc21` [Ro 31-8220 Mesylate], the IC50 was 27 nM at PKCγ; 5 nM at PKCα; 14 nM on PKCβII; 24 nM at PKCβI; 24 nM on PKCε. In addition, on PKN2, the “efficacy to inhibit PKN2 (in words)” value is recorded as “low efficacy”. In assay [1], the “difference in IL-1β release between FMF and HD monocytes (in words)” value is on record as “same trends”.
As for `CN[C@@H]1C[C@H]2O[C@@](C)([C@@H]1OC)n1c3ccccc3c3c4c(c5c6ccccc6n2c5c31)C(=O)N[C@H]4O` [UCN-01, 7-hydroxystaurosporine], the IC50 on PKCε was 530 nM. Moreover, in [2], the “difference in AUC of cell death kinetics between FMF and HD monocytes (in words)” value is reported as “statistical difference”. Also, the “time to reach 20% cell death, FMF patients' monocytes” value in [2] (UCN-01 12.5 μM, no priming) is “less than 50 minutes”.
For the molecule `CO[C@@H]1C[C@@H](C[C@H]2CC[C@H](C)[C@H]([C@@H](C)C(=O)O)O2)O[C@]2(O[C@](C)([C@H]3CC[C@@](C)([C@@H]4O[C@@H]([C@H]5O[C@@](O)(CO)[C@H](C)C[C@@H]5C)C[C@@H]4C)O3)C[C@H]2C)[C@@H]1C` [nigericin], in assay [2] (setting [4]), the “time to reach 20% cell death, FMF patients' monocytes” value came to 74 min and the “time to reach 20% cell death, monocytes from healthy controls” value was 72 min. Moreover, in assay [2], the “difference in AUC of cell death kinetics between FMF and HD monocytes (in words)” value is “did not demonstrate any statistical difference”.
As to `Cn1c2ccccc2c2c3c(c4c5ccccc5n(CCC#N)c4c21)CNC3=O` [Go6976], in the assay with PKC (Rat brain), the IC50 is 7.9 nM.
One may read the Ki as a measure of affinity in units of concentration, obtained from inhibition or displacement. `CN1CCN(c2nc(C3=C(c4c[nH]c5ccccc45)C(=O)NC3=O)c3ccccc3n2)CC1` [Sotrastaurin]: the Ki at PKCθ was 0.22 nM. Besides, the “activity on PKCζ (in words)” value at PKCζ was “inactive”.
With `CN(C)CCCn1cc(C2=C(c3c[nH]c4ccccc34)C(=O)NC2=O)c2ccccc21` [Bisindolylmaleimide I], the concentration for half-maximal inhibition (IC50) on PKCγ was 20 nM; on PKCα it was 20 nM; on PKCβII, 16 nM; on PKCβI, 17 nM. The “selectivity for PKC as compared to EGFR, PDGFR and insulin receptor” value in the assay with PKC is “more than 3000 fold”.
As to `Nc1ncnc2c1ncn2[C@@H]1O[C@H](COP(=O)(O)OP(=O)(O)OP(=O)(O)O)[C@@H](O)[C@H]1O` [ATP], the “difference in IL-1β release between FMF and HD monocytes (in words)” value in assay [1] was “did not observe any difference”.
Turning to `Cc1cc(N)c2ccccc2[n+]1CCCCCCCCCC[n+]1c(C)cc(N)c2ccccc21` [Dequalinium Chloride], the IC50 in assay [3] was 1100 nM; in the assay on PKC, 7 to 18 µM.
As for `O=c1ccc2ccc(O)c(O)c2o1` [Daphnetin], the values for the IC50 with PKA and in the assay on PKC were 9.33 µM and 25 µM, respectively.
As to `O=c1c(O)c(-c2ccc(O)c(O)c2)oc2cc(O)cc(O)c12` [Quercetin], the 50% inhibitory concentration (IC50) with PI3K was 2.4 to 5.4 µM.
